From US12398143B2, “Imidazopyrazine derivatives and the use thereof as medicament” (Boehringer Ingelheim International GmbH, priority 2019, dated 2025)

What was measured:
human MDR1 (P-gp) = target: T1, human MDR1 (P-gp) (Homo sapiens, UniProt P08183); assay: MDCK assay MDR-1 (p-GP) permeability; format: in vitro ADME; details: dog, MDCK-MDR1 monolayers; for efflux ratio at 2 h: pH 7.4, Papp (b-a)/Papp (a-b); for Papp A→B at 2 h: apical-to-basal, pH 7.4, 1 or 10 μM
T1 construct: expressed in transfected cells; host or cells: MDCKII (Madin-Darby canine kidney)
T1 sequence (P08183 whole entry): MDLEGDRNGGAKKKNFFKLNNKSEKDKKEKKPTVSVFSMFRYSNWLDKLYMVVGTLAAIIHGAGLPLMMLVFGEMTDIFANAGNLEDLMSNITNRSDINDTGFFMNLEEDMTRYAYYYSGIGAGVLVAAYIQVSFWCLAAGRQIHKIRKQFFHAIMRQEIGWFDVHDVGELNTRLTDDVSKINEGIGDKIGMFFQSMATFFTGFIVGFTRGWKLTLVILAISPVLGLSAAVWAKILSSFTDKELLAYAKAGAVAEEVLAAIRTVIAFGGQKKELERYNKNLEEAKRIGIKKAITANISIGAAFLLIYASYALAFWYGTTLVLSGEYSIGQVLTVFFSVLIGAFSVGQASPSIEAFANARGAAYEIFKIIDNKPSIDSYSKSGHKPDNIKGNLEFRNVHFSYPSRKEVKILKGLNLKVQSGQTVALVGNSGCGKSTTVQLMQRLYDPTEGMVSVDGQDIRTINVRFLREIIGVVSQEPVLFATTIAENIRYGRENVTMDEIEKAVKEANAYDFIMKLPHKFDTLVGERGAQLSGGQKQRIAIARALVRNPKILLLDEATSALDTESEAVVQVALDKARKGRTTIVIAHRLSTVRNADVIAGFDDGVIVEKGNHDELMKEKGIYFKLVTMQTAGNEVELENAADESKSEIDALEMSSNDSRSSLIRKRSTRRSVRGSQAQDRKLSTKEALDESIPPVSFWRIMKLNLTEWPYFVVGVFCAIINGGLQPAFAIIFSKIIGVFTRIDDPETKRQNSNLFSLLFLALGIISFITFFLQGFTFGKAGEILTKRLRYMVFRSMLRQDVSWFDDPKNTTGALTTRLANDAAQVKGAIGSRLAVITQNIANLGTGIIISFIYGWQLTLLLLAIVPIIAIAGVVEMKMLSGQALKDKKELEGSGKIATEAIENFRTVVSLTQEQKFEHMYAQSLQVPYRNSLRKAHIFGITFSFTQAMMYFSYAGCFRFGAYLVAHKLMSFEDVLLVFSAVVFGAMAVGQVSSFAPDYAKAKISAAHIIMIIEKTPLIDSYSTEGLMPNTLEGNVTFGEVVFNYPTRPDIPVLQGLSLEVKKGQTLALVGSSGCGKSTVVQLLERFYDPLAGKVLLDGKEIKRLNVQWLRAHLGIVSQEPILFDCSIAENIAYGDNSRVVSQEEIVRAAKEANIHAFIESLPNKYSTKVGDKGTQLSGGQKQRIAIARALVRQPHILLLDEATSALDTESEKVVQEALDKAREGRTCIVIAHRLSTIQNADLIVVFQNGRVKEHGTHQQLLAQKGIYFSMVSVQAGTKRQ
Procedure: The MDCK assays provide information on the potential of a compound to pass the blood brain barrier. Permeability measurements across polarized, confluent MDCK-MDR1 cell monolayers grown on permeable filter supports are used as an in vitro absorption model: apparent permeability coefficients (PE) of the compounds across the MDCK-MDR1 cell monolayers are measured (pH 7.4, 37° C.) in apical-to-basal (AB) and basal-to-apical (BA) transport direction. The AB permeability (PEAB) represents drug absorption from the blood into the brain and the BA permeability (PEBA) drug efflux from the brain back into the blood via both, passive permeability as well as active transport mechanisms mediated by efflux and uptake transporters that are expressed on the MDCK-MDR1 cells, predominantly by the overexpressed human MDR1. Identical or similar permeabilities in both transport directions indicate passive permeation, vectorial permeability points to additional active transport mechanisms. Higher PEBA than PEAB (PEBA/PEAB>5) indicates the involvement of active efflux mediated by MDR1, which might compromise the goal to achieve sufficient brain exposure. Therefore, this assay provides valuable support for selection of compounds applicable for further in vivo testing. High permeability not limited by efflux at the blood brain barrier is a favourable characteristic for compounds that are to be used for drugs acting primarily in the CNS. Consequently, to ensure high permeability at the blood brain barrier, it is highly preferred to minimize the efflux (efflux<5) at MDR1 transporter.
Apparent permeability coefficients (Papp) of the compounds across the MDCK-MDR1 monolayers (MDCKII cells transfected with human MDR1 cDNA expression plasmid) are measured in apical-to-basal (AB) and basal-to-apical (BA) direction.
MDCK-MDR1 cells (6×10^5 cells/cm^2) are seeded on filter inserts (Corning, Transwell, polycarbonate, 0.4 μm pore size) and cultured for 9 to 10 days. Compounds dissolved in DMSO stock solution (1-20 mM) are diluted with HTP-4 aqueous buffer (128.13 mM NaCl, 5.36 mM KCl, 1 mM MgSO4, 1.8 mM CaCl2), 4.17 mM NaHCO3, 1.19 mM Na2HPO4, 0.41 mM NaH2PO4, 15 mM HEPES, 20 mM glucose, pH 7.4) supplemented with 0.25% BSA to prepare the transport solutions (final concentration: 1 or 10 μM, final DMSO <=0.5%). The transport solution is applied to the apical or basolateral donor side for measuring A-B or B-A permeability, respectively. The receiver side contains HTP-4 buffer supplemented with 0.25% BSA. Samples are collected at the start and end of experiment from the donor and at various time intervals for up to 2 hours also from the receiver side for concentration measurement by HPLC-MS/MS.
Sampled receiver volumes are replaced with fresh receiver solution. Efflux ratio is calculated dividing the Papp (b-a) values by the Papp (a-b) values.

NMDA NR1/NR2B receptor = target: T2, NMDA NR1/NR2B receptor (Homo sapiens, UniProt Q05586+Q13224); assay: NMDA NR1/NR2B FLIPR calcium assay in HEK293 cells; format: cell-based; details: HEK293 with tetracyclin-inducible NR1/NR2B; 20 μM glycine/1 μM glutamate; compounds of the invention; read-out: IC50 (in vitro affinity as obtained in the FLIPR assay)
T2 construct: host or cells: HEK293, tetracycline-inducible
T2 sequence (Q13224 27-1484, other chains not shown): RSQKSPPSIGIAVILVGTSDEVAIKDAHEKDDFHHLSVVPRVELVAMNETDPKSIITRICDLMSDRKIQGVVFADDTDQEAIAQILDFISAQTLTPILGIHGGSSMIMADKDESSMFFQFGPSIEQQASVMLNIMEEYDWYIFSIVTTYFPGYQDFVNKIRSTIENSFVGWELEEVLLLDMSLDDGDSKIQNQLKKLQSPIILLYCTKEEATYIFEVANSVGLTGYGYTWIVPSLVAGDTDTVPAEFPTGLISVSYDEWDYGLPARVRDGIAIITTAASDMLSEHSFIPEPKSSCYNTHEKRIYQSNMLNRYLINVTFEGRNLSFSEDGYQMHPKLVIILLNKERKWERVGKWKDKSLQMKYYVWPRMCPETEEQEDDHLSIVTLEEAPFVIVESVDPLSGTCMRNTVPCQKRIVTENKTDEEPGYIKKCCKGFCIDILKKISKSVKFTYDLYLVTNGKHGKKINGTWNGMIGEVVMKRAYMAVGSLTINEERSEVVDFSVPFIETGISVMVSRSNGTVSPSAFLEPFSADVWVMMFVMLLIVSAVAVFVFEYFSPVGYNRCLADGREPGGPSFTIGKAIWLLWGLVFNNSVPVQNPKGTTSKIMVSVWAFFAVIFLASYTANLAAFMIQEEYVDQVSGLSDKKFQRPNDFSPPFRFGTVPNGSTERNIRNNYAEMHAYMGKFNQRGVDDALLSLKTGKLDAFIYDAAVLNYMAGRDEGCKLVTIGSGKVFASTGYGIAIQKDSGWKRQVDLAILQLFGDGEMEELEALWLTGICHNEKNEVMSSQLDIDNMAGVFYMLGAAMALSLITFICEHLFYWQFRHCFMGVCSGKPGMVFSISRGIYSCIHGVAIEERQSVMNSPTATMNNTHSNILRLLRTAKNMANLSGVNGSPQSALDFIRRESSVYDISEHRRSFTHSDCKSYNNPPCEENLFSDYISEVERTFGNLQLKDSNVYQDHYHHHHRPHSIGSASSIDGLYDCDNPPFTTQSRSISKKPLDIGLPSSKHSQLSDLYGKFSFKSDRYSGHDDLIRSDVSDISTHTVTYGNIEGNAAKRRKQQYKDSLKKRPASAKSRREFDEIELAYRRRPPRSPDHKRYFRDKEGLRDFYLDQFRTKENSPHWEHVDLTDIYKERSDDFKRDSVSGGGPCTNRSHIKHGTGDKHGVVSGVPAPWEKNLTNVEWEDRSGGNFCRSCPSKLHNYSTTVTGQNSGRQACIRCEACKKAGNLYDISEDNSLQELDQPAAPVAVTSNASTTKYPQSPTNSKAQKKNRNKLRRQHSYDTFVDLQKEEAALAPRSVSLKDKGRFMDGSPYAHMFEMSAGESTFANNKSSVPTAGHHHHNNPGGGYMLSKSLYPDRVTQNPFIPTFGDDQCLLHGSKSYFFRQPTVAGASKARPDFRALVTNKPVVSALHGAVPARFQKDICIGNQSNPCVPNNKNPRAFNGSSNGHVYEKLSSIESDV
Procedure: A human HEK293 cell line with tetracyclin-inducible expression of NMDA NR1/NR2B receptor was used as a test system for compound efficacy and potency. The cell line was purchased from ChanTest, Catalog #CT6121. Compound activity was determined by measuring the effect of compounds on intracellular calcium concentration induced by glycine/glutamate agonism in a FLIPRtetra system (Molecular Devices).
The cells were obtained as frozen cells in cryo-vials and stored until use at −150° C. Cells were grown in culture medium (DMEM/F12, 10% FBS, 5 μg/mL Blasticidin, 150 μg/mL Zeozin, 500 μg/mL Geneticin). […] For sub-culturing the cells were detached from flasks by Versene. For the assay, cells were detached, washed twice with induction medium (DMEM/F12 without glutamine, 10% FBS, 2 μg/mL Tetracycline, 2 mM Ketamine) and seeded to 384 well pure coat amine plates (BD 359324, 50000 cells per well in 50 μl) 48 h prior to assay in induction medium.
The test compounds were dissolved in 100% DMSO at a concentration of 10 mM and in a first step diluted in DMSO to a concentration of 5 mM, followed by serial dilution steps in 100% DMSO. Dilution factor and number of dilution steps may vary according to needs. Typically 8 different concentrations by 1:5 dilutions were prepared in duplicate, further intermediate dilutions (1:37.5) of the substances were carried out with aqueous assay buffer (137 mM NaCl, 4 mM KCl, 1.8 mM CaCl, 10 mM HEPES, 10 mM Glucose, pH 7,4) resulting in a compound concentration 3 times above the final test concentration and DMSO at 2.7% resulting in 0.9% final DMSO concentration in the assay.
At the assay day cells were washed 3× with assay buffer, 10 μL buffer remained in the wells after washing. 10 μL Ca kit loading buffer (AAT Bioquest) was added to the cells and the plates were incubated with lid for 60 minutes at r.t. 20 μl assay buffer containing 60 μM glycine (20 μM final) and 3 μM glutamate (1 μM final) was added to column 1-23. Fluorescence (indicating the calcium influx as a result of the NR1/NR2B ion channel activation) was read on the FLIPRtetra device for 60 seconds to monitor the glutamate induced effects. After 2 minutes 20 μL of compound or controls (row 1-22) in assay buffer were carefully added to the wells. […] The average of 2 measurements at 5 minutes and 5 min 10 seconds after compound addition is calculated and further used for IC50 calculations. Each assay microtiter plate contained wells (in column 23 or 24) with DMSO controls instead of compound as controls for glycine/glutamate induced fluorescence (high controls) and wells with 1 μM of a reference NR2b NAM as low controls (Compound 22; reference: Layton, Mark E et al, ACS Chemical Neuroscience 2011, 2(7), 352-362).
The output file of the reader contains the well number and measured average fluorescence units. For data evaluation and calculation, the measurement of the low control was set as 0% control and the measurement of the high control was set as 100% control. The IC50 values were calculated using the standard 4 parameter logistic regression formula. Calculation: [y=(a−d)/(1+(x/c)^B)+d], a=low value, d=high value; x=conc M; c=IC50 M; b=slope.

[1] = Metabolic stability in human liver microsomes; format: in vitro ADME; details: pooled human liver microsomes, pH 7.6, 37° C., 1 mg/mL microsomal protein, 1 μM compound, NADPH 1 mM, read-out: Half-life - t½ human liver microsomes
From the text: Stability in human liver microsomes refers to the susceptibility of compounds to bio-transformation in the context of selecting and/or designing drugs with favorable pharmacokinetic properties. The primary site of metabolism for many drugs is the liver. Human liver microsomes contain the cytochrome P450s (CYPs), and thus represent a model system for studying drug metabolization in vitro. Enhanced stability in human liver microsomes is associated with several advantages, including increased bioavailability and adequate half-life, which can enable lower and less frequent dosing of patients. Thus, enhanced stability in human liver microsomes is a favorable characteristic for compounds that are to be used for drugs.
The metabolic degradation of the test compound was assayed at 37° C. with pooled human liver microsomes. The final incubation volume of […] per time point contains TRIS buffer pH 7.6 at room temperature (0.1 M), magnesium chloride (5 mM aqueous solution), microsomal protein (1 mg/mL for human) and the test compound at a final concentration of 1 μM. Following a short preincubation period at 37° C., the reactions were initiated by addition of betanicotinamide adenine dinucleotide phosphate, reduced form (NADPH, 1 mM), and terminated by transferring an aliquot into solvent after different time points. After centrifugation (10000 g, 5 min), an aliquot of the supernatant was assayed by LC-MS/MS for the amount of parent compound. The half-life was determined by the slope of the semi-logarithmic plot of the concentration-time profile.

Compound | efflux ratio at 2 h (human MDR1 (P-gp)) | Papp A→B at 2 h (human MDR1 (P-gp)) [×10⁻⁶ cm/s] | IC50 (NMDA NR1/NR2B receptor) [nM] | half-life at 1 μM [1] [min]
Cc1ccc(COC(=O)N2CCO[C@H](c3nc4nccnc4[nH]3)C2)c(F)c1 [Example 1] | 1.6 | 33 | 90 | 31.5
Cc1cccc(COC(=O)N2CCO[C@H](c3nc4nccnc4[nH]3)C2)c1F [Example 3] | 0.7 | 61 | 725 | 8
O=C(OCc1ccccc1F)N1CCO[C@H](c2nc3nccnc3[nH]2)C1 [Example 4] | 0.8 | 57 | 382 | > 130
O=C(OCc1ccc(F)cc1F)N1CCO[C@H](c2nc3nccnc3[nH]2)C1 [Example 5] | 1.4 | 40 | 477 | > 130
O=C(OCc1ccc(F)cc1)N1CCO[C@H](c2nc3nccnc3[nH]2)C1 [Example 10] | 2.9 | 23 | 735 | > 130
Cc1ccc(COC(=O)N2CCO[C@H](c3nc4nccnc4[nH]3)C2)cc1 [Example 12] | 1.8 | 31 | 210 | 36
